Laboratory results: ChEMBL document CHEMBL5728714, “Aryl heterocyclic piperidinone formyl peptide 2 receptor and formyl peptide 1 receptor agonists” (2021)

Target: T1, N-formyl peptide receptor 2 (Homo sapiens, UniProt P25090)
T1 sequence (P25090 whole entry): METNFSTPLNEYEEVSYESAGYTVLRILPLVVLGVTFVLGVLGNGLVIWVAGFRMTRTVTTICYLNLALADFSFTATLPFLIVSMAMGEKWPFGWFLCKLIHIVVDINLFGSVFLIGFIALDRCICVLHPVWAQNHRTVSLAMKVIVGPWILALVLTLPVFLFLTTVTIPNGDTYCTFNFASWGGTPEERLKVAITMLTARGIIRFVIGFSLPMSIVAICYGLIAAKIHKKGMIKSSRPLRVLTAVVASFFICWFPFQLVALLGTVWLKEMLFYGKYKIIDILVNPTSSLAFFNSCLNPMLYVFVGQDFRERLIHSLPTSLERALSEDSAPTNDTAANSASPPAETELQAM
Assay: FPR2 and FPR1 Cyclic Adenosine Monophosphate (cAMP) Assays: A mixture of forskolin (5 μM final for FPR2 or 10 μM final for FPR1) and IBMX (200 μM final) were added to 384-well Proxiplates (Perkin-Elmer) pre-dotted with test compounds in DMSO (1% final) at final concentrations in the range of 1.7 nM to 100 μM. Chinese Hamster Ovary cells (CHO) overexpressing human FPR1 or human FPR2 receptors were cultured in F-12 (Ham's) medium supplemented with 10% qualified FBS, 250 μg/ml zeocin and 300 μg/ml hygromycin (Life Technologies). Reactions were initiated by adding 2,000 human FPR2 cells per well or 4,000 human FPR1 cells per well in Dulbecco's PBS (with calcium and magnesium) (Life Technologies) supplemented with 0.1% BSA (Perkin-Elmer). The reaction mixtures were incubated for 30 min at room temperature. The level of intracellular cAMP was determined using the HTRF HiRange cAMP assay reagent kit (Cisbio) according to manufacturer's instruction. Solutions of cryptate conjugated anti-cAMP and d2 flurorophore-labelled cAMP were made in a supplied lysis buffer separately. Upon completion of the reaction, the cells were lysed with equal volume of the d2-cAMP solution and anti-cAMP solution. After a 1-h room temperature incubation, time-resolved fluorescence intensity was measured using the Envision (Perkin-Elmer) at 400 nm excitation and dual emission at 590 nm and 665 nm. […]
Type: cell-based

SMILES	EC50 [nM]
O=C(Nc1cnc(Cl)cn1)N[C@@H]1CCCN(c2ccc(C3(CN4CCOCC4)CC3)cc2)C1=O	< 10
O=C(Nc1ccc(C(F)(F)F)cc1)N[C@@H]1CCCN(c2ccc(C3CCOCC3)cc2)C1=O	< 10
